The record followed here is US4271155A, “Water soluble hydrazones of 3-formylrifamycin SV, antibacterial compositions thereof and method of use thereof” (Gruppo Lepetit S.p.A., priority 1979, dated 1981).

Read-outs that look alike come from different tables or passages of the source.

The test system of data set [1] is Staphylococcus aureus Tour. In words: ED50 in mice infected with Staphylococcus aureus Tour. To be noted: sc. Format: in vivo. The text has this: (§1) The values of the ED50 of the compounds of examples 2, 3 and 4 against the two microbial strains and the toxicity (LD50) of the compounds are reported in the following Table
Another data set relates to Escherichia coli. Nature of the data set: ED50 in mice infected with Escherichia coli. The data set is classed as in vivo. Particulars: sc, read-out: ED50, E. coli.
Source text: as §1

The nature of the next data set: toxicity (LD50) in mice. Particulars: mouse, in vivo.
Source text: as §1

A short description of data set [2]: solubility in water / aqueous vehicles. The data set is classed as physicochemical. From the text: The new rifamycins of formula I are in fact completely soluble in water or in mixture of water with other pharmaceutically acceptable solvents mixable with water. Useful solvents which can be admixed with water are for instance the polyhydric aliphatic alcohols such as ethylene glycol, propylene glycol, glycerine and mixtures thereof. These solutions can be added with buffers to maintain the pH range at a physiological value. For instance, ten grams of the compound of formula I wherein R is methyl, X is [drawing 3] are completely soluble in 100 ml of water buffered at pH 7.38 (phosphate buffer). The corresponding compound wherein A and B are both the sodium cation is even more soluble; in fact 100 ml of water can dissolve about fifty grams of said compound.

[3] abbreviates: ip, read-out: LD50 in mice, i.p.
Setting [4] is: iv, read-out: LD50 in mice, i.v.

In general, ED50 refers to the dose that gives a 50% effect, or the effect in half of the subjects. As usually defined, the LD50 is the dose expected to kill half of the subjects tested. On to `COC1C=COC2(C)Oc3c(C)c(O)c4c(O)c(c(C=NN(C)CCOP(=O)(O)O)c(O)c4c3C2=O)NC(=O)C(C)=CC=CC(C)C(O)C(C)C(O)C(C)C(OC(C)=O)C1C` (centres unmarked) [Example 4, 3-[[[2-(Phosphonoxy)ethyl]methylhydrazono]methyl]rifamycin SV], for which the median effective dose (ED50) in data set [1] was found to be 1.51 mg/kg; in the data set on Escherichia coli, 106 mg/kg. Also, the values for the LD50 in the data set “toxicity (LD50) in mice” (setting [3]) and in the data set “toxicity (LD50) in mice” (setting [4]) were 592 mg/kg and 507 mg/kg, respectively.

Turning to `COC1C=COC2(C)Oc3c(C)c(O)c4c(O)c(c(C=NN(C)CC(C)OP(=O)(O)O)c(O)c4c3C2=O)NC(=O)C(C)=CC=CC(C)C(O)C(C)C(O)C(C)C(OC(C)=O)C1C` (centres unmarked) [listing 1 of 2 here], in data set [2] (per 100 ml of water, A and B both sodium cation), the “amount that 100 ml of water can dissolve” value was “about fifty”.

Take `CCC(CN(C)N=Cc1c2c(O)c3c(O)c(C)c4c(c3c1O)C(=O)C(C)(OC=CC(OC)C(C)C(OC(C)=O)C(C)C(O)C(C)C(O)C(C)C=CC=C(C)C(=O)N2)O4)OP(=O)(O)O` (centres unmarked) [Example 3, 3-[[[2-(Phosphonoxy)butyl]methylhydrazono]methyl]rifamycin SV]: the results for the median effective dose (ED50) (in data set [1]; with Escherichia coli) were 0.812 mg/kg and 130 mg/kg, respectively. Moreover, the LD50 in “toxicity (LD50) in mice” (setting [3]) is over 500 mg/kg; in the data set “toxicity (LD50) in mice” (setting [4]), 525 mg/kg.

For `COC1C=COC2(C)Oc3c(C)c(O)c4c(O)c(c(C=NN(C)CC(C)OP(=O)(O)O)c(O)c4c3C2=O)NC(=O)C(C)=CC=CC(C)C(O)C(C)C(O)C(C)C(OC(C)=O)C1C` (centres unmarked) [listing 2 of 2 here], in data set [2] (per 100 ml of water buffered at pH 7.38 (phosphate buffer)), the “completely soluble in 100 ml of water” value is “ten”.

Turning to `COC1C=COC2(C)Oc3c(C)c(O)c4c(O)c(c(C=NN(C)CC(C)OP(=O)(O)O)c(O)c4c3C2=O)NC(=O)C(C)=CC=CC(C)C(O)C(C)C(O)C(C)C(OC(C)=O)C1C` (centres unmarked) [Example 2, 3-[[[2-(Phosphonoxy)propyl]methylhydrazino]methyl]rifamycin SV], the ED50 in data set [1] stood at 0.812 mg/kg; in the data set with Escherichia coli, 98.5 mg/kg. The results for the LD50 in the data set “toxicity (LD50) in mice” (setting [3]) and in “toxicity (LD50) in mice” (setting [4]) were 770 mg/kg and 665 mg/kg, respectively.
